Data: article PMC9487510, “A Novel Oral GyrB/ParE Dual Binding Inhibitor Effective against Multidrug-Resistant Neisseria gonorrhoeae and Other High-Threat Pathogens” (Antimicrobial Agents and Chemotherapy, 2022)
Values after ≈ are worked out from the molar mass of the structure shown. Like-named read-outs stand apart in the source and are kept apart here.

Key:
[1] = tested on: vancomycin-resistant enterococci (VRE); experiment: MIC, in vitro susceptibility testing (CLSI); format: cell-based; details: Enterococcus
[2] = Kinetic aqueous solubility; format: physicochemical; details: aqueous medium (not further specified)
[3] = tested on: N. gonorrhoeae clinical isolates; experiment: MIC, agar dilution (CLSI); format: cell-based, Neisseria gonorrhoeae; details: for MIC: Neisseria gonorrhoeae, read-out: MIC

For `CNc1cc(F)cc2c1[nH]c1nc(Oc3cnc(C)nc3)nc(N3CCC4(CC3)CO[C@@H](CO)C4)c12` [JSF-2414], the MIC ([1]; strain 2138) was > 500 ng/mL, the MIC ([1]; strain 2139) was 2 ng/mL (≈ 4.05 nM) and the MIC ([1]; strain 2927) was 8 ng/mL (≈ 16.2 nM). The MIC ([1]; strain 2966) was 4 ng/mL (≈ 8.1 nM), the MIC ([1]; strain 2967) was 31 ng/mL (≈ 62.8 nM) and the MIC ([1]; strain 3090) was > 500 ng/mL. The MIC ([1]; strain 3091) was 2 ng/mL (≈ 4.05 nM), the MIC ([1]; strain 3322) was 16 ng/mL (≈ 32.4 nM) and the solubility kinetic [2] was 0.576 µM (≈ 0.284 µg/mL). The MIC range ([3]; 96 clinical isolates) was 0.5 to 30 ng/mL, the MIC ([3]; ATCC700825, antibiotic-susceptible strain ATCC 700825) was 3.9 ng/mL (≈ 7.9 nM) and the MIC ([3]; multidrug-resistant strain H041) was 7.8 ng/mL (≈ 15.8 nM). The MIC ([3]; strain CDC1 (GCREF2012 016)) was 3.9 ng/mL (≈ 7.9 nM), the MIC ([3]; strain CDC2 (GCREF2012 045)) was 3.9 ng/mL (≈ 7.9 nM) and the MIC ([3]; strain CDC3 (GCREF2013 013)) was 3.9 ng/mL (≈ 7.9 nM). For the same compound, the MIC ([3]; strain CDC4 (GCREF2013 030)) was 3.9 ng/mL (≈ 7.9 nM), the MIC ([3]; strain CDC5 (GCREF2012 001)) was 3.9 ng/mL (≈ 7.9 nM) and the MIC ([3]; strain CDC6 (GCREF2012 002)) was 7.8 ng/mL (≈ 15.8 nM). It also gave an MIC ([3]; strain CDC8 (GCREF2012 004)) of 2 ng/mL (≈ 4.05 nM), an MIC ([3]; strain CDC9 (GCREF2012 005)) of 3.9 ng/mL (≈ 7.9 nM) and an MIC ([3]; strain CDC10 (GCREF2012 006)) of 3.9 ng/mL (≈ 7.9 nM). It also gave an MIC ([3]; strain CDC11 (GCREF2012 007)) of 3.9 ng/mL (≈ 7.9 nM), an MIC ([3]; strain CDC12 (GCREF2012 008)) of 3.9 ng/mL (≈ 7.9 nM) and an MIC ([3]; strain CDC13 (GCREF2012 009)) of 3.9 ng/mL (≈ 7.9 nM). For the same compound, the MIC ([3]; strain CDC14 (GCREF2012 010)) was 3.9 ng/mL (≈ 7.9 nM), the MIC ([3]; strain CDC15 (GCREF2012 011)) was 7.8 ng/mL (≈ 15.8 nM) and the MIC ([3]; strain CDC16 (GCREF2012 012)) was 7.8 ng/mL (≈ 15.8 nM). For the same compound, the MIC ([3]; strain CDC18 (GCREF2012 014)) was 7.8 ng/mL (≈ 15.8 nM), the MIC ([3]; strain CDC19 (GCREF2012 015)) was 3.9 ng/mL (≈ 7.9 nM) and the MIC ([3]; strain CDC20 (GCREF2012 017)) was 16 ng/mL (≈ 32.4 nM). The MIC ([3]; strain CDC21 (GCREF2012 018)) was 3.9 ng/mL (≈ 7.9 nM), the MIC ([3]; strain CDC22 (GCREF2012 019)) was 30 ng/mL (≈ 60.8 nM) and the MIC ([3]; strain CDC23 (GCREF2012 020)) was 7.8 ng/mL (≈ 15.8 nM). For the same compound, the MIC ([3]; strain CDC24 (GCREF2012 021)) was 3.9 ng/mL (≈ 7.9 nM), the MIC ([3]; strain CDC25 (GCREF2012 022)) was 3.9 ng/mL (≈ 7.9 nM) and the MIC ([3]; strain CDC26 (GCREF2012 023)) was 7.8 ng/mL (≈ 15.8 nM). For the same compound, the MIC ([3]; strain CDC27 (GCREF2012 024)) was 3.9 ng/mL (≈ 7.9 nM), the MIC ([3]; strain CDC28 (GCREF2012 025)) was 3.9 ng/mL (≈ 7.9 nM) and the MIC ([3]; strain CDC29 (GCREF2012 026)) was 7.8 ng/mL (≈ 15.8 nM). For the same compound, the MIC ([3]; strain CDC30 (GCREF2012 027)) was 7.8 ng/mL (≈ 15.8 nM), the MIC ([3]; strain CDC31 (GCREF2012 028)) was 7.8 ng/mL (≈ 15.8 nM) and the MIC ([3]; strain CDC32 (GCREF2012 029)) was 7.8 ng/mL (≈ 15.8 nM). It also gave an MIC ([3]; strain CDC33 (GCREF2012 030)) of 7.8 ng/mL (≈ 15.8 nM), an MIC ([3]; strain CDC34 (GCREF2012 031)) of 3.9 ng/mL (≈ 7.9 nM) and an MIC ([3]; strain CDC35 (GCREF2012 032)) of 3.9 ng/mL (≈ 7.9 nM). The MIC ([3]; strain CDC36 (GCREF2012 033)) was 2 ng/mL (≈ 4.05 nM), the MIC ([3]; strain CDC37 (GCREF2012 034)) was 3.9 ng/mL (≈ 7.9 nM) and the MIC ([3]; strain CDC38 (GCREF2012 035)) was 3.9 ng/mL (≈ 7.9 nM). For the same compound, the MIC ([3]; strain CDC39 (GCREF2012 036)) was 3.9 ng/mL (≈ 7.9 nM), the MIC ([3]; strain CDC40 (GCREF2012 037)) was 3.9 ng/mL (≈ 7.9 nM) and the MIC ([3]; strain CDC41 (GCREF2012 038)) was 3.9 ng/mL (≈ 7.9 nM). It also gave an MIC ([3]; strain CDC42 (GCREF2012 039)) of 3.9 ng/mL (≈ 7.9 nM), an MIC ([3]; strain CDC43 (GCREF2012 040)) of 3.9 ng/mL (≈ 7.9 nM) and an MIC ([3]; strain CDC45 (GCREF2012 042)) of 7.8 ng/mL (≈ 15.8 nM). The MIC ([3]; strain CDC46 (GCREF2012 043)) was 3.9 ng/mL (≈ 7.9 nM), the MIC ([3]; strain CDC47 (GCREF2012 044)) was 3.9 ng/mL (≈ 7.9 nM) and the MIC ([3]; strain CDC48 (GCREF2012 046)) was 3.9 ng/mL (≈ 7.9 nM). It also gave an MIC ([3]; strain CDC49 (GCREF2012 047)) of 3.9 ng/mL (≈ 7.9 nM) and an MIC ([3]; strain CDC50 (GCREF2012 048)) of 7.8 ng/mL (≈ 15.8 nM).
